What was measured:
Format in all cases: in vivo
[1] = test system: Abutilon theophrasti (ABUTH); experiment: Pre-emergence herbicidal glasshouse test (Table B1); details: evaluated after 13 days
Procedure: (§1) Seeds of a variety of test species are sown in standard soil in pots (Lolium perenne (LOLPE), Amaranthus retoflexus (AMARE), Abutilon theophrasti (ABUTH), Setaria faberi (SETFA), Echinochloa crus-galh (ECHCG), Ipomoea hederacea (IPOHE)). After cultivation for one day (pre-emergence) or after 8 days cultivation (post-emergence) under controlled conditions in a glasshouse (at 24/16° C., day/night; 14 hours light; 65% humidity), the plants are sprayed with an aqueous spray solution derived from the formulation of the technical active ingredient in acetone/water (50:50) solution containing 0.5% Tween 20 (polyoxyethelyene sorbitan monolaurate, CAS RN 9005-64-5). Compounds are applied at 500 g/h unless otherwise indicated. The test plants are then grown in a glasshouse under controlled conditions in a glasshouse (at 24/16° C., day/night; 14 hours light; 65% humidity) and watered twice daily. After 13 days for pre and post-emergence, the test is evaluated for the percentage damage caused to the plant. The biological activities are shown in the following table on a five-point scale (5=80-100%; 4=60-79%; 3=40-59%; 2=20-39%; 1=0-19%).

[2] = test system: Amaranthus retoflexus (AMARE); experiment: as above; details: evaluated after 13 days
Procedure: as §1

[3] = test system: Echinochloa crus-galh (ECHCG); experiment: as above; details: evaluated after 13 days
Procedure: as §1

[4] = test system: Ipomoea hederacea (IPOHE); experiment: as above; details: evaluated after 13 days
Procedure: as §1

[5] = test system: Setaria faberi (SETFA); experiment: as above; details: evaluated after 13 days
Procedure: as §1

[6] = test system: Abutilon theophrasti (ABUTH); experiment: Post-emergence herbicidal glasshouse test (Table B1); details: applied at 125 g/ha, evaluated after 13 days
Procedure: as §1

[7] = test system: Amaranthus retoflexus (AMARE); experiment: as above; details: evaluated after 13 days
Procedure: as §1

[8] = test system: Ipomoea hederacea (IPOHE); experiment: as above; details: evaluated after 13 days
Procedure: as §1

[9] = test system: Setaria faberi (SETFA); experiment: as above; details: evaluated after 13 days
Procedure: as §1

[10] = test system: Echinochloa crus-galh (ECHCG); experiment: as above; details: evaluated after 13 days
Procedure: as §1

Row | SMILES | PRE Application ABUTH, percentage damage on five-point scale ([1]; applied at 125 g/ha) | PRE Application AMARE, percentage damage on five-point scale ([2]; applied at 125 g/ha) | PRE Application ECHCG, percentage damage on five-point scale ([3]; applied at 125 g/ha) | PRE Application IPOHE, percentage damage on five-point scale ([4]; applied at 125 g/ha) | PRE Application SETFA, percentage damage on five-point scale ([5]; applied at 125 g/ha) | POST Application ABUTH, percentage damage on five-point scale [6] | POST Application AMARE, percentage damage on five-point scale ([7]; applied at 125 g/ha) | POST Application IPOHE, percentage damage on five-point scale ([8]; applied at 125 g/ha) | POST Application SETFA, percentage damage on five-point scale ([9]; applied at 125 g/ha) | POST Application ECHCG, percentage damage on five-point scale ([10]; applied at 125 g/ha) | PRE Application ABUTH, percentage damage on five-point scale ([1]; applied at 500 g/h) | PRE Application AMARE, percentage damage on five-point scale ([2]; applied at 500 g/h) | PRE Application ECHCG, percentage damage on five-point scale ([3]; applied at 500 g/h) | PRE Application IPOHE, percentage damage on five-point scale ([4]; applied) | PRE Application SETFA, percentage damage on five-point scale ([5]; applied at 500 g/h) | POST Application AMARE, percentage damage on five-point scale ([7]; applied at 500 g/h) | POST Application ECHCG, percentage damage on five-point scale ([10]; applied at 500 g/h) | POST Application IPOHE, percentage damage on five-point scale ([8]; applied at 500 g/h) | POST Application SETFA, percentage damage on five-point scale ([9]; applied at 500 g/h)
1 | Cn1nnnc1NC(=O)c1ccc(OC(F)(F)F)c(NC(=O)C2(F)CC2)c1Cl [Compound 1.054] | 5 (5=80-100%) | 5 (5=80-100%) | 5 (5=80-100%) | 4 (4=60-79%) | 5 (5=80-100%) | 5 (5=80-100%) | 5 (5=80-100%) | 5 (5=80-100%) | 5 (5=80-100%) |  |  |  |  |  |  |  |  |  | 
2 | CCOCCC(=O)Nc1c(OC(F)(F)F)ccc(C(=O)Nc2nnnn2CC)c1Cl [Compound 1.077] | 5 (5=80-100%) | 5 (5=80-100%) | 5 (5=80-100%) | 5 (5=80-100%) | 3 (3=40-59%) |  | 5 (5=80-100%) | 4 (4=60-79%) | 5 (5=80-100%) | 5 (5=80-100%) |  |  |  |  |  |  |  |  | 
3 | CCC(=O)Nc1c(OC(F)(F)F)ccc(C(=O)Nc2nnnn2C)c1C [Compound 1.078] | 5 (5=80-100%) | 5 (5=80-100%) | 5 (5=80-100%) | 4 (4=60-79%) | 4 (4=60-79%) |  | 5 (5=80-100%) | 4 (4=60-79%) | 5 (5=80-100%) | 5 (5=80-100%) |  |  |  |  |  |  |  |  | 
4 | CCC(=O)Nc1c(OC(F)(F)F)ccc(C(=O)Nc2nnnn2CC)c1C [Compound 1.079] | 5 (5=80-100%) | 5 (5=80-100%) | 5 (5=80-100%) | 4 (4=60-79%) | 4 (4=60-79%) |  | 4 (4=60-79%) | 4 (4=60-79%) | 4 (4=60-79%) | 5 (5=80-100%) |  |  |  |  |  |  |  |  | 
5 | Cn1nnnc1NC(=O)c1ccc(OC(F)F)c(NC(=O)c2ncc(C(F)(F)F)cc2Cl)c1Cl [Compound 1.081] | 5 (5=80-100%) | 5 (5=80-100%) | 1 (1=0-19%) | 1 (1=0-19%) | 1 (1=0-19%) |  | 4 (4=60-79%) | 4 (4=60-79%) | 3 (3=40-59%) | 3 (3=40-59%) |  |  |  |  |  |  |  |  | 
6 | Cn1nnnc1NC(=O)c1ccc(OC(F)F)c(NC(=O)c2cccc(Cl)n2)c1Cl [Compound 1.083] | 5 (5=80-100%) | 5 (5=80-100%) |  | 3 (3=40-59%) | 4 (4=60-79%) | 4 (4=60-79%) | 4 (4=60-79%) | 4 (4=60-79%) | 4 (4=60-79%) | 2 (2=20-39%) |  |  |  |  |  |  |  |  | 
7 | COc1cccc(C(=O)Nc2c(OC(F)F)ccc(C(=O)Nc3nnnn3C)c2Cl)n1 [Compound 1.085] | 5 (5=80-100%) | 4 (4=60-79%) |  | 3 (3=40-59%) | 3 (3=40-59%) | 4 (4=60-79%) | 4 (4=60-79%) | 4 (4=60-79%) | 4 (4=60-79%) | 4 (4=60-79%) |  |  |  |  |  |  |  |  | 
8 | Cn1nnnc1NC(=O)c1ccc(OC(F)F)c(NC(=O)c2ncc(Cl)cc2Cl)c1Cl [Compound 1.087] | 4 (4=60-79%) | 5 (5=80-100%) | 1 (1=0-19%) | 4 (4=60-79%) | 4 (4=60-79%) | 4 (4=60-79%) | 4 (4=60-79%) | 4 (4=60-79%) | 4 (4=60-79%) |  |  |  |  |  |  |  |  |  | 
9 | CCC(=O)N(CC)c1c(OC(F)F)ccc(C(=O)Nc2nnnn2C)c1C(F)(F)F [Compound 1.091] | 5 (5=80-100%) | 5 (5=80-100%) | 5 (5=80-100%) | 3 (3=40-59%) | 4 (4=60-79%) |  | 4 (4=60-79%) | 3 (3=40-59%) | 4 (4=60-79%) | 5 (5=80-100%) |  |  |  |  |  |  |  |  | 
10 | CCn1nnnc1NC(=O)c1ccc(OC(F)(F)F)c(NC(=O)c2ncccc2F)c1Cl [Compound 1.094] |  |  |  |  |  |  |  |  |  |  | 1 (1=0-19%) | 5 (5=80-100%) | 1 (1=0-19%) | 1 (1=0-19%) | 1 (1=0-19%) | 5 (5=80-100%) | 5 (5=80-100%) | 5 (5=80-100%) | 5 (5=80-100%)
11 | CCC(=O)N(CC)c1c(OC(F)F)ccc(C(=O)Nc2nnnn2CC)c1Cl [Compound 1.095] | 5 (5=80-100%) | 5 (5=80-100%) | 5 (5=80-100%) | 4 (4=60-79%) | 4 (4=60-79%) |  | 5 (5=80-100%) | 4 (4=60-79%) | 5 (5=80-100%) | 5 (5=80-100%) |  |  |  |  |  |  |  |  | 
12 | CCC(=O)Nc1c(OC(F)F)ccc(C(=O)Nc2nnnn2C)c1C(F)(F)F [Compound 1.096] | 3 (3=40-59%) | 4 (4=60-79%) | 1 (1=0-19%) | 3 (3=40-59%) | 1 (1=0-19%) |  | 4 (4=60-79%) | 3 (3=40-59%) | 3 (3=40-59%) | 4 (4=60-79%) |  |  |  |  |  |  |  |  | 
13 | CCC(=O)N(C)c1c(OC(F)F)ccc(C(=O)Nc2nnnn2CC)c1Cl [Compound 1.097] | 5 (5=80-100%) | 5 (5=80-100%) | 5 (5=80-100%) | 5 (5=80-100%) | 4 (4=60-79%) |  | 4 (4=60-79%) | 4 (4=60-79%) | 5 (5=80-100%) | 4 (4=60-79%) |  |  |  |  |  |  |  |  | 
14 | Cn1nnnc1NC(=O)c1ccc(OC(F)(F)C(F)F)c(NC(=O)C2CC2)c1Cl [Compound 1.110] |  |  |  |  |  |  |  |  |  |  | 3 (3=40-59%) | 5 (5=80-100%) | 5 (5=80-100%) | 1 (1=0-19%) | 5 (5=80-100%) | 5 (5=80-100%) | 5 (5=80-100%) | 5 (5=80-100%) | 5 (5=80-100%)

Reference: patent publication US20230219904A1 (SYNGENTA CROP PROTECTION AG, priority 2020, published 2023)
